Results on ten compounds are retold here after PubChem BioAssay (NCI).

Some test systems named below: UACC-257 melanoma; HL-60(TB) leukemia; RXF 393 renal; OVCAR-3 ovarian; SW-620 colon; NCI-H460 lung; 786-0 renal; HCT-116 colon; K-562 leukemia; ACHN renal; HOP-62 NSCLC; MALME-3M melanoma; OVCAR-4 ovarian; UO-31 renal.
Test in all cases: NCI tumour cell line growth inhibition, 48 h

Molecules are shown by their SMILES.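 Cultured in 96-well plates, cells were exposed to test compound for 48 hours across five concentrations. The concentration for full growth arrest is given as TGI.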

With `O=CC1=CCCN(CCc2c[nH]c3ccccc23)C1`, the TGI with UACC-257 melanoma was 132 µM; in the experiment on HL-60(TB) leukemia, 91.3 µM; in the experiment with RXF 393 renal it was 85.8 µM; with OVCAR-3 ovarian it was 95.9 µM; with SW-620 colon, 89.9 µM; in the experiment with NCI-H460 lung, 105 µM. Besides, the TGI in the experiment with 786-0 renal was 117 µM; with HCT-116 colon it was 80.4 µM; in the experiment on K-562 leukemia, greater than 393 µM; in the experiment with ACHN renal, 125 µM; in the experiment on HOP-62 NSCLC, 104 µM; with MALME-3M melanoma, 122 µM.
`CC1=C(O)C(=O)C2C(=O)C1C(C)C2c1ccccc1` (stereo unspecified): the TGI in the experiment with UACC-257 melanoma, in the experiment on RXF 393 renal, in the experiment on OVCAR-3 ovarian, with SW-620 colon, with OVCAR-4 ovarian and with 786-0 renal was greater than 100 µM throughout. Besides, the TGI with K-562 leukemia, in the experiment on ACHN renal, with HOP-62 NSCLC, in the experiment with UO-31 renal and with MALME-3M melanoma was greater than 100 µM each time.
Consider `O=C(NC1CCCCC1)NC12CC3CC(CC(F)(C3)C1)C2`, for which the TGI in the experiment on UACC-257 melanoma, in the experiment with HL-60(TB) leukemia, with RXF 393 renal, with OVCAR-3 ovarian, in the experiment with SW-620 colon and with NCI-H460 lung was greater than 100 µM throughout. Moreover, the TGI in the experiment on 786-0 renal, in the experiment on HCT-116 colon, in the experiment on K-562 leukemia, in the experiment with ACHN renal, in the experiment on HOP-62 NSCLC and in the experiment on UO-31 renal was greater than 100 µM in each case. The same compound displayed a TGI with MALME-3M melanoma greater than 100 µM.
For `OC(c1cc2ccccc2[nH]1)C(O)(c1cc2ccccc2[nH]1)c1cc2ccccc2[nH]1` (stereo unspecified), the TGI in the experiment with UACC-257 melanoma came to 64.6 µM; with HL-60(TB) leukemia, 127 µM; in the experiment with RXF 393 renal, 29.1 µM; in the experiment with OVCAR-3 ovarian it was 9.13 µM; in the experiment on SW-620 colon, 43.1 µM; in the experiment with NCI-H460 lung, 51.3 µM. The TGI with 786-0 renal was 20.8 µM; in the experiment with HCT-116 colon, 27.3 µM; in the experiment with K-562 leukemia it was greater than 245 µM; with ACHN renal, 50.1 µM; in the experiment on HOP-62 NSCLC, 48.3 µM; in the experiment with MALME-3M melanoma, 59.7 µM.
Turning to `CON1C(=O)C2(CCCCC2)C(=O)C12C=CC(C)CC2` (stereo unspecified), the TGI with UACC-257 melanoma, in the experiment on HL-60(TB) leukemia, with RXF 393 renal, in the experiment with OVCAR-3 ovarian, in the experiment with SW-620 colon and with NCI-H460 lung was greater than 100 µM in each case. Further, the TGI with 786-0 renal, in the experiment on K-562 leukemia, with HOP-62 NSCLC, in the experiment with UO-31 renal and with MALME-3M melanoma was greater than 100 µM throughout.
For the compound `CO/S(=N/S(=O)(=O)c1ccccc1)c1ccccc1[N+](=O)[O-]` (stereo unspecified), the TGI in the experiment with UACC-257 melanoma, with OVCAR-3 ovarian, in the experiment with SW-620 colon, in the experiment on OVCAR-4 ovarian, in the experiment with NCI-H460 lung and with 786-0 renal was greater than 100 µM throughout. The TGI in the experiment on K-562 leukemia, in the experiment on ACHN renal, with HOP-62 NSCLC, in the experiment with UO-31 renal and in the experiment with MALME-3M melanoma was greater than 100 µM each time.
`O=C(/C=C/c1ccc(-c2ccccc2)cc1)c1ccccc1`: the TGI with UACC-257 melanoma is greater than 100 µM; with HL-60(TB) leukemia it was greater than 100 µM; in the experiment on SW-620 colon, 42.7 µM; in the experiment on OVCAR-4 ovarian it was greater than 100 µM; in the experiment on NCI-H460 lung, 50.9 µM; in the experiment with 786-0 renal, 50.9 µM. The TGI in the experiment with HCT-116 colon is 30.2 µM; in the experiment on K-562 leukemia, greater than 100 µM; in the experiment on ACHN renal, greater than 100 µM; in the experiment with UO-31 renal it was greater than 100 µM; in the experiment on MALME-3M melanoma, greater than 100 µM.
For the compound `CC(C)(Oc1ccc2c(=O)cc(-c3ccc(Cl)cc3)oc2c1)C(=O)Nc1c(Cl)cccc1Cl`, the TGI in the experiment with UACC-257 melanoma, in the experiment with HL-60(TB) leukemia, in the experiment with OVCAR-3 ovarian, with SW-620 colon, with NCI-H460 lung and with 786-0 renal was greater than 100 µM each time. Moreover, the TGI with HCT-116 colon, in the experiment with K-562 leukemia, with HOP-62 NSCLC, with UO-31 renal and in the experiment on MALME-3M melanoma was greater than 100 µM in each case.
`CC1=C(C(=O)O)N2C(=O)[C@@H](NC(=O)C(c3ccccc3)N3CSC(=S)N(C(C)C)C3)C2SC1` (stereo partly specified): the TGI in the experiment on UACC-257 melanoma, in the experiment with HL-60(TB) leukemia, in the experiment with OVCAR-3 ovarian, in the experiment with OVCAR-4 ovarian, with NCI-H460 lung and in the experiment with 786-0 renal was greater than 100 µM each time. In addition, the TGI with HCT-116 colon, with K-562 leukemia, in the experiment on ACHN renal, in the experiment on HOP-62 NSCLC, with UO-31 renal and in the experiment with MALME-3M melanoma was greater than 100 µM throughout.
For `CC(=O)NNc1ncc(C(=O)/C=C/c2ccccc2C)s1`, the TGI with UACC-257 melanoma, in the experiment with HL-60(TB) leukemia, in the experiment on RXF 393 renal, in the experiment on OVCAR-3 ovarian, with SW-620 colon and with NCI-H460 lung was greater than 100 µM in each case. The TGI with 786-0 renal, in the experiment on K-562 leukemia, in the experiment on ACHN renal, with HOP-62 NSCLC, in the experiment on UO-31 renal and in the experiment on MALME-3M melanoma was greater than 100 µM in each case.
